Source: patent publication US20090264528A1, “SERINE PALMITOYLCOA TRANSFERASE (SPT) INHIBITION BY MYRIOCIN OR GENETIC DEFICIENCY DECREASES CHOLESTEROL ABSORPTION” (The Research Foundation of State University of New York, priority 2008, published 2009)

How the values were obtained:
primary enterocyte = assay: Cholesterol and oleic acid uptake by primary enterocytes; type: cell-based, mouse
Description: FIGS. 6A-D depict several graphs that illustrate that SPT deficient enterocytes absorb less cholesterol than controls. Enterocytes were isolated from mice (n=4, 12-14 weeks old) and resuspended in 4 ml of DMEM containing 0.05 microCi/ml of either [^14C]cholesterol (FIGS. 6A and 6C) or [^3H]oleic acid (FIGS. 6B and 6D). Enterocytes (100 microl) were collected at 5, 10, and 20 minutes, washed twice with DMEM, and cellular radioactivity was determined. The amounts of lipids were normalized to protein and plotted against time. FIGS. 6A and 6B, WT vs WT/myriocin; FIGS. 6C and 6D, WT vs Sptlc1^+/−, Values are mean±SD. *P<0.01.
Cholesterol uptake by primary enterocyte: The enterocyte cholesterol uptake study was carried out as disclosed in: Iqbal J, Hussain M M. Evidence for multiple complementary pathways for efficient cholesterol absorption in mice. J Lipid Res. 2005; 46:1491-1501, which is incorporated herein by reference in its entirety.
For further confirmation of the above in vivo observations, enterocytes were isolated from myriocin-treated or Sptlc1^+/− mice, as well as controls, incubated with radiolabeled cholesterol for varying times, and the cellular radioactivity was determined. […] Experiments were performed to study the uptake of [^3H]oleic acid.

[1] = tested on: apical membrane SM of small intestine segments; assay: In situ lysenin treatment and cell mortality measurement (WST-1); type: cell-based, mouse; conditions: jejunum segments from myriocin-treated WT mice, 5 microg/ml lysenin, 30 minutes
Description: FIGS. 7A-B depict several graphs that illustrate that SPT deficiency decreased SM levels on the apical surface of mouse small intestine. Small intestines were turned inside-out and cut into 0.5 cm of segments from jejunum. The segments were then bathed in 0.5 ml of oxygenated DMEM containing 5% glutamine with 5 microg/ml lysenin or without it as control, at 37 degrees C. for 30 minutes. Then 0.05 ml of WST-1 cell proliferation reagent were added and continuously incubated at 37 degrees C. for 15 minutes. After incubation, solutions were transferred to an Eppendorf tube and quick-spun at maximum speed to pellet cell debris. Supernatants were read OD at 450 nm, a reading for viable cells. Background reading was the WST-1 reagent with no cell treatment. […]
In situ lysenin treatment and cell mortality measurement: Overnight-fasted mice were anesthetized and small intestines were isolated from WT animals with or without myriocin treatment, as well as sptlc1 KO and control mice. […] Supernatant was then measured OD at 450 nm, a reading for viable cells (WST-1 reagent with no cell incubation being the background reading). […]
Second, lysenin, a SM-specific cytotoxin, was used to measure apical membrane SM levels, since lysenin can recognize SM only when it forms aggregates or microdomains in the plasma membranes. […] Cell viability in tissue segments was measured by adding WST-1 cell proliferation reagent.

NPC1L1 = assay: Western blot of small intestine homogenates, NPC1L1; type: in vivo, mouse; conditions: WT and apoE KO mice, compared with nontreated animals
Description: (§1) FIG. 8 depicts that SPT deficiency decreased NPC1L1 and ABCA1, and increased ABCG5 in mouse small intestine. Tissue homogenates were prepared as described in Methods, and equal amounts of homogenates from each mouse were pooled in each group (n=5). A total of 50 microg pooled sample from each group was immunoblotted with antibodies against NPC1L1, ABCA1, and ABCG5. Immunoblots of beta (β)-actin were used as a loading control.
(§2) Preparation and Western blot analysis of small intestine homogenates: A total of 50-100 mg of small intestine sample was homogenized and lysed proteins were immunoblotted, as previously described, (3) with a polyclonal rabbit antihuman NPC1L1 antiserum 69B, a polyclonal rabbit antimouse ABCG5 antiserum, a polyclonal antimouse ABCA1 antibody, and a monoclonal mouse anti-(beta)β-actin antibody.
(§3) Next, Western blot measurements of NPC1L1 and ABCG5/G8 were completed, where the measurement were located in apical membranes of the enterocytes. […] Also, ABCA1 was measured, which is located in the basal membranes of the enterocytes and is involved in cholesterol secretion.

triglyceride absorption = assay: [3H]triolein-derived counts in plasma (triglyceride absorption); type: in vivo, mouse; conditions: myriocin treated animals (WT, apoE KO), within 24 hours
Description: FIGS. 5A-I depict several graphs that illustrate that SPT deficient mice absorbed less cholesterol. Mice (n=6, 10-12 weeks old) were fasted for 5 hours and gavaged with 0.1 microCi [^14C]cholesterol and 0.2 microCi [^3H]sitostanol with 0.5 mg unlabeled cholesterol dissolved in 15 microl of olive oil. Feces were collected after 24 hours and lipids were extracted for counting (FIGS. 5A, 5D, and 5G, cholesterol absorption, WT vs WT/myriocin; apoE KO vs apoE KO/myriocin; WT vs Sptlc1^+/−, respectively). Blood was collected during the 24 hour period (Panels B, E, and H, [^14C]cholesterol in blood, WT vs WT/myriocin; apoE KO vs apoE KO/myriocin; WT vs Sptlc1^+/−, respectively). To test specificity, the mice were gavaged with 0.2 microCi [^3H]triolein together with 0.5 mg/ml cold cholesterol. Blood was collected during the 24 hour period (FIGS. 5C, 5F, and 5I, [^3H] glycerolipids in blood, WT versus WT/myriocin; apoE KO versus apoE KO/myriocin; WT versus Sptlc1^+/−, respectively). Value is mean±SD. *P<0.01.
To investigate whether the effect of SPT deficiency was specific to cholesterol, experimental mice were fed with […] [^3H]triolein instead of [^14C]cholesterol, and blood was collected at different time points within 24 hours.

ABCG5 = assay: Western blot of small intestine homogenates, ABCG5; type: in vivo, mouse; conditions: WT and apoE KO mice, compared with nontreated animals
Description: as §1, §2, §3

CCCCCCC(=O)CCCCCC/C=C/C[C@@H](O)[C@H](O)[C@@](N)(CO)C(=O)O [Myriocin, myriocin]
uptake of [3H]oleic acid vs controls (primary enterocyte; enterocytes isolated from myriocin-treated mice): No significant changes | radiolabeled cholesterol uptake (cellular radioactivity) vs controls (primary enterocyte; enterocytes isolated from myriocin-treated mice, 5, 10, 20 minutes): significantly less radioactivity | sensitivity to lysenin-mediated cytolysis vs controls [1]: significantly less sensitivity | NPC1L1 protein mass in small intestine (NPC1L1): significantly decreased | [3H]triolein-derived counts in the plasma vs controls (triglyceride absorption): No significant changes | ABCG5 protein mass in small intestine (ABCG5): increased
